Test results taken from US7157620B2, “Enhanced transformation and regeneration of transformed embryogenic pine tissue” (Mead Westvaco Corporation, priority 2000, dated 2007).

What was measured:
[1] = test system: P. taeda embryogenic cell lines; assay: Effect of ABA in preparation, recovery and selection media on transformants after Agrobacterium inoculation; format: cell-based, Pinus taeda
Excerpt: (§1) Seven loblolly pine cell lines or hybrid cell lines from seven widely diverse genetic backgrounds were used which had been grown, maintained, and transformed using Agrobacterium as described in Example 1 above except that the preparation medium, used for preparation and co-cultivation of the cells, either contained or lacked ABA. Following eradication using wash medium as described in Example 5 above, polyester support membranes bearing approximately 0.1 g of embryogenic tissue were divided onto recovery media either containing or lacking ABA. […] Concentrations of ABA used in all these media were 0, 10, and 30 mg/L.
(§2) Cells were maintained on the selection media, with transfer of the polyester support membranes to fresh selection media of the same composition, every two weeks for a total of eight weeks of selection. […] The cells were also checked for the presence of sequences by PCR amplification using primers specific for both the uidA and nptII transgenes, techniques well known to those skilled in the art of plant transformation.

[2] = test system: P. rigida hybrid embryogenic cell line; assay: as above; format: cell-based; conditions: line H1
Excerpt: as §1, §2

[3] = test system: Loblolly pine cell lines; assay: ABA in selection media after biolistic transformation; format: cell-based, Pinus taeda
Excerpt: Loblolly pine cell lines were used which had been grown and maintained as described in Example 1 above, and prepared for biolistic transformation as described in Example 4 above. Following bombardment the support membranes bearing the bombarded embryogenic cells were transferred to DCR2 maintenance media for one week. Following this the support membranes bearing the bombarded embryogenic cells were divided among plates containing gelled DCR selection medium either with or without the addition of 10 mg/l abscisic acid (ABA), and cultured for three weeks. Cells selected on either type of selection medium during this first selection period on selection medium containing ABA were then divided among plates with and without ABA and cultured for a further three weeks. The same occurred in the next transfer, resulting in groups of cells that had been selected entirely in the absence of ABA, entirely in the presence of ABA, or in the presence of ABA for one of the three three-week selection periods.

CC1=CC(=O)CC(C)(C)[C@@]1(O)/C=C/C(C)=C\C(=O)O [ABA, abscisic acid]
effect of ABA in the preparation medium on the observation of transformants ([1]; 10 or 30 mg/L ABA): neutral or beneficial
necrotic foci in somatic embryogenic masses versus media without ABA ([1]; 10 or 30 mg/L ABA during and after co-cultivation, all lines): fewer necrotic foci
Average (n = 12) number of transformants observed per selection plate ([1]; line P1, ABA mg/l preparation/recovery/selection medium 0/0/10): 0.3
Average (n = 12) number of transformants observed per selection plate ([1]; line P1, ABA mg/l preparation/recovery/selection medium 0/0/30): 0.0
Average (n = 12) number of transformants observed per selection plate ([1]; line P1, ABA mg/l preparation/recovery/selection medium 0/10/10): 0.0
Average (n = 12) number of transformants observed per selection plate ([1]; line P1, ABA mg/l preparation/recovery/selection medium 0/10/30): 0.1
Average (n = 12) number of transformants observed per selection plate ([1]; line P1, ABA mg/l preparation/recovery/selection medium 0/30/30): 0.8
Average (n = 12) number of transformants observed per selection plate ([1]; line P1, ABA mg/l preparation/recovery/selection medium 10/10/10): 1.3
Average (n = 12) number of transformants observed per selection plate ([1]; line P1, ABA mg/l preparation/recovery/selection medium 30/10/10): 0.3
Average (n = 12) number of transformants observed per selection plate ([1]; line P1, ABA mg/l preparation/recovery/selection medium 30/30/30): 0.4
Average (n = 12) number of transformants observed per selection plate ([1]; line P2, ABA mg/l preparation/recovery/selection medium 0/0/10): 5.8
Average (n = 12) number of transformants observed per selection plate ([1]; line P2, ABA mg/l preparation/recovery/selection medium 0/0/30): 8.8
Average (n = 12) number of transformants observed per selection plate ([1]; line P2, ABA mg/l preparation/recovery/selection medium 0/10/10): 1.0
Average (n = 12) number of transformants observed per selection plate ([1]; line P2, ABA mg/l preparation/recovery/selection medium 0/10/30): 0.3
Average (n = 12) number of transformants observed per selection plate ([1]; line P2, ABA mg/l preparation/recovery/selection medium 0/30/30): 5.2
Average (n = 12) number of transformants observed per selection plate ([1]; line P2, ABA mg/l preparation/recovery/selection medium 10/10/10): 10.0
Average (n = 12) number of transformants observed per selection plate ([1]; line P2, ABA mg/l preparation/recovery/selection medium 30/10/10): 5.9
Average (n = 12) number of transformants observed per selection plate ([1]; line P2, ABA mg/l preparation/recovery/selection medium 30/30/30): 5.3
Average (n = 12) number of transformants observed per selection plate ([1]; line P3, ABA mg/l preparation/recovery/selection medium 0/0/10): 21.7
Average (n = 12) number of transformants observed per selection plate ([1]; line P3, ABA mg/l preparation/recovery/selection medium 0/0/30): 22.3
Average (n = 12) number of transformants observed per selection plate ([1]; line P3, ABA mg/l preparation/recovery/selection medium 0/10/10): 23.3
Average (n = 12) number of transformants observed per selection plate ([1]; line P3, ABA mg/l preparation/recovery/selection medium 0/10/30): 26.0
Average (n = 12) number of transformants observed per selection plate ([1]; line P3, ABA mg/l preparation/recovery/selection medium 0/30/30): 18.6
Average (n = 12) number of transformants observed per selection plate ([1]; line P3, ABA mg/l preparation/recovery/selection medium 10/10/10): 22.6
Average (n = 12) number of transformants observed per selection plate ([1]; line P3, ABA mg/l preparation/recovery/selection medium 30/10/10): 21.6
Average (n = 12) number of transformants observed per selection plate ([1]; line P3, ABA mg/l preparation/recovery/selection medium 30/30/30): 21.1
Average (n = 12) number of transformants observed per selection plate ([1]; line P4, ABA mg/l preparation/recovery/selection medium 0/0/10): 27.5
Average (n = 12) number of transformants observed per selection plate ([1]; line P4, ABA mg/l preparation/recovery/selection medium 0/0/30): 34.9
Average (n = 12) number of transformants observed per selection plate ([1]; line P4, ABA mg/l preparation/recovery/selection medium 0/10/10): 28.8
Average (n = 12) number of transformants observed per selection plate ([1]; line P4, ABA mg/l preparation/recovery/selection medium 0/10/30): 30.9
Average (n = 12) number of transformants observed per selection plate ([1]; line P4, ABA mg/l preparation/recovery/selection medium 0/30/30): 28.6
Average (n = 12) number of transformants observed per selection plate ([1]; line P4, ABA mg/l preparation/recovery/selection medium 10/10/10): 27.8
Average (n = 12) number of transformants observed per selection plate ([1]; line P4, ABA mg/l preparation/recovery/selection medium 30/10/10): 22.7
Average (n = 12) number of transformants observed per selection plate ([1]; line P4, ABA mg/l preparation/recovery/selection medium 30/30/30): 27.3
Average (n = 12) number of transformants observed per selection plate ([1]; line P5, ABA mg/l preparation/recovery/selection medium 0/0/10): 18.1
Average (n = 12) number of transformants observed per selection plate ([1]; line P5, ABA mg/l preparation/recovery/selection medium 0/0/30): 5.5
Average (n = 12) number of transformants observed per selection plate ([1]; line P5, ABA mg/l preparation/recovery/selection medium 0/10/10): 2.4
Average (n = 12) number of transformants observed per selection plate ([1]; line P5, ABA mg/l preparation/recovery/selection medium 0/10/30): 7.2
Average (n = 12) number of transformants observed per selection plate ([1]; line P5, ABA mg/l preparation/recovery/selection medium 0/30/30): 3.3
Average (n = 12) number of transformants observed per selection plate ([1]; line P5, ABA mg/l preparation/recovery/selection medium 10/10/10): 10.3
Average (n = 12) number of transformants observed per selection plate ([1]; line P5, ABA mg/l preparation/recovery/selection medium 30/10/10): 11.3
Average (n = 12) number of transformants observed per selection plate ([1]; line P5, ABA mg/l preparation/recovery/selection medium 30/30/30): 14.3
Average (n = 12) number of transformants observed per selection plate ([1]; line P6, ABA mg/l preparation/recovery/selection medium 0/0/10): 3.9
Average (n = 12) number of transformants observed per selection plate ([1]; line P6, ABA mg/l preparation/recovery/selection medium 0/0/30): 3.3
Average (n = 12) number of transformants observed per selection plate ([1]; line P6, ABA mg/l preparation/recovery/selection medium 0/10/10): 3.2
Average (n = 12) number of transformants observed per selection plate ([1]; line P6, ABA mg/l preparation/recovery/selection medium 0/10/30): 3.2
Average (n = 12) number of transformants observed per selection plate ([1]; line P6, ABA mg/l preparation/recovery/selection medium 0/30/30): 2.3
Average (n = 12) number of transformants observed per selection plate ([1]; line P6, ABA mg/l preparation/recovery/selection medium 10/10/10): 4.5
Average (n = 12) number of transformants observed per selection plate ([1]; line P6, ABA mg/l preparation/recovery/selection medium 30/10/10): 3.1
Average (n = 12) number of transformants observed per selection plate ([1]; line P6, ABA mg/l preparation/recovery/selection medium 30/30/30): 2.3
Average (n = 12) number of transformants observed per selection plate ([2]; ABA mg/l preparation/recovery/selection medium 0/0/10): 27.0
Average (n = 12) number of transformants observed per selection plate ([2]; ABA mg/l preparation/recovery/selection medium 0/0/30): 21.1
Average (n = 12) number of transformants observed per selection plate ([2]; ABA mg/l preparation/recovery/selection medium 0/10/10): 19.0
Average (n = 12) number of transformants observed per selection plate ([2]; ABA mg/l preparation/recovery/selection medium 0/10/30): 21.6
Average (n = 12) number of transformants observed per selection plate ([2]; ABA mg/l preparation/recovery/selection medium 0/30/30): 15.1
Average (n = 12) number of transformants observed per selection plate ([2]; ABA mg/l preparation/recovery/selection medium 10/10/10): 21.9
Average (n = 12) number of transformants observed per selection plate ([2]; ABA mg/l preparation/recovery/selection medium 30/10/10): 22.9
Average (n = 12) number of transformants observed per selection plate ([2]; ABA mg/l preparation/recovery/selection medium 30/30/30): 21.8
transformants from a cell line of progeny of the P. taeda elite line 7–56 ([3]; 10 mg/L ABA in selection medium): observed only on treatments that had contained ABA in the selection medium
number of transformants obtained when ABA was present during the entire selection period ([3]; 10 mg/l ABA in DCR selection medium, nine weeks, all lines tested): equal to or greater than the number obtained for any other treatment
